Experimental data from patent EP2266984A1, “Pyrido[2,3-d]pyrimidines as Wnt antagonists for treatment of cancer and arthritis” (Deutsches Krebsforschungszentrum Stiftung des öffentlichen …, priority 2009, dated 2010).

Tests used:
Hek293T = test: CellTiterGlo cytotoxicity assay in Hek293T; assay type: cell-based; settings: 24h after compound addition
Procedure: (§1) For examination of cytotoxicity in these cancer cell lines the commercial available CellTiterGlo® Reagent (Promega, USA) was used according to the manufactor.
(§2) Compounds were applied to Hek293T (denoted (1)) or HepG2 (denoted (2)), cultured in Dulbecco's Modified Eagles Medium, supplemented with 10% fetal calf serum and 1% penicillin/streptomycin. Cells were grown in T75 flasks at 37 °C, 5% CO2 and trypsinized when 60-80% confluent by adding 2 ml of 0.25% Trypsin-EDTA solution. Cells were then re-suspended into culture medium yielding approx. 4000 cells (1) or 4500 cells (2), suspended in 30 microl medium. 48h after cell seeding, compounds were added to yield the desired final concentrations. 24h after compound addition cytotoxicity was evaluated. For this purpose the media was removed and CellTiterGlo® was added according to the manufactors manual. In this assay the luciferase emission readout is directly correlated with the cellular amount of ATP, low luciferase emission thus is reflecting cytotoxicity of a compound. For the evaluation of the IC50 the compound was applied in increasing concentrations yielding final concentrations per well of 5nM - 100 microM.

HepG2 = test: CellTiterGlo cytotoxicity assay in HepG2; assay type: cell-based; settings: 24h after compound addition
Procedure: as §1, §2

HFF-1 = test: Cell line specific cytotoxicity, HFF-1 fibroblasts; assay type: cell-based, human; settings: 10 microM; HFF-1 cell line
Procedure: For examination of cell line-specific cytotoxicity, compounds were applied to human colorectal cancer cells (HCT116, denoted (1); SW480, denoted (2); Dld-1, denoted (3)) and human fibroblasts (HFF-1, denoted (4); HS-68, denoted (5)), cultured in Mc Coy's (1) and Dulbecco's Modified Eagles Medium ((2)-(5)), supplemented with 10% ((1)-(3)) and 20% ((4), (5)) fetal calf serum and 1% penicillin/streptomycin. Cells were grown in T75 flasks at 37 °C, 5% CO2 and trypsinized when 60-80% confluent by adding 2 ml of 0.25% Trypsin-EDTA solution. Cells were then re-suspended into culture medium yielding approx. 750 cells, suspended in 45 microl medium, were plated into each well of a black 384-well plate for fluorescence imaging experiments. […] Compound incubation was terminated by (a) fixation and (b) permeabilisation of cells, followed by (c) fluorescence labeling of cell nuclei for cytometric quantification or by immunocytochemistry for microscopic evaluation of cell morphology. […]
Cell line-specific cytotoxicity was quantified by counting the number of Hoechst labeled nuclei per well of a 384-well plate using a plate cytometer. Data obtained with the cytometer was analysed using standard data analysis software.
Identified hits were further evaluated by visual inspection of fluorescence micrographs obtained from imaging using a conventional fluorescence microscope.

CCOC(=O)c1c(C)nc2c(c(N3CCN(Cc4ccccc4F)CC3)nc(=O)n2-c2ccccc2)c1-c1ccccc1 [Example 150]
Normalized toxicity values (Hek293T) (Hek293T; 0.005 microM): 1.1200
Normalized toxicity values (Hek293T) (Hek293T; 0.015 microM): 1.0780
Normalized toxicity values (Hek293T) (Hek293T; 0.046 microM): 1.0735
Normalized toxicity values (Hek293T) (Hek293T; 0.137 microM): 1.0278
Normalized toxicity values (Hek293T) (Hek293T; 0.412 microM): 1.0553
Normalized toxicity values (Hek293T) (Hek293T; 1.235 microM): 0.9703
Normalized toxicity values (Hek293T) (Hek293T; 3.704 microM): 1.1975
Normalized toxicity values (Hek293T) (Hek293T; 11.111 microM): 1.2900
Normalized toxicity values (Hek293T) (Hek293T; 33.333 microM): 1.3025
Normalized toxicity values (Hek293T) (Hek293T; 100.000 microM): 1.5500
Normalized toxicity values (HepG2) (HepG2; 0.005 microM): 1.1325
Normalized toxicity values (HepG2) (HepG2; 0.015 microM): 1.1350
Normalized toxicity values (HepG2) (HepG2; 0.046 microM): 1.0275
Normalized toxicity values (HepG2) (HepG2; 0.137 microM): 1.0350
Normalized toxicity values (HepG2) (HepG2; 0.412 microM): 0.9625
Normalized toxicity values (HepG2) (HepG2; 1.235 microM): 0.9870
Normalized toxicity values (HepG2) (HepG2; 3.704 microM): 1.0658
Normalized toxicity values (HepG2) (HepG2; 11.111 microM): 1.0800
Normalized toxicity values (HepG2) (HepG2; 33.333 microM): 1.1425
Normalized toxicity values (HepG2) (HepG2; 100.000 microM): 1.2175

CCOC(=O)c1c(C)nc2c(c(N3CCN(C/C=C/c4ccccc4)CC3)nc(=O)n2-c2ccccc2)c1-c1ccccc1 [Example 153, 7-Methyl-2-oxo-1,5-diphenyl-4-[4-((E)-3-phenyl-allyl)-piperazin-1-yl]-1,2-dihydro-pyrido[2,3-d]pyrimidine-6-carboxylic acid ethyl ester]
Normalized toxicity values (Hek293T) (Hek293T; 0.005 microM): 1.0725
Normalized toxicity values (Hek293T) (Hek293T; 0.015 microM): 1.0650
Normalized toxicity values (Hek293T) (Hek293T; 0.046 microM): 1.0425
Normalized toxicity values (Hek293T) (Hek293T; 0.137 microM): 0.9703
Normalized toxicity values (Hek293T) (Hek293T; 0.412 microM): 1.0800
Normalized toxicity values (Hek293T) (Hek293T; 1.235 microM): 1.0623
Normalized toxicity values (Hek293T) (Hek293T; 3.704 microM): 1.1125
Normalized toxicity values (Hek293T) (Hek293T; 11.111 microM): 1.1475
Normalized toxicity values (Hek293T) (Hek293T; 33.333 microM): 1.1375
Normalized toxicity values (Hek293T) (Hek293T; 100.000 microM): 0.0290
Normalized toxicity values (HepG2) (HepG2; 0.005 microM): 1.0700
Normalized toxicity values (HepG2) (HepG2; 0.015 microM): 1.0658
Normalized toxicity values (HepG2) (HepG2; 0.046 microM): 0.9725
Normalized toxicity values (HepG2) (HepG2; 0.137 microM): 0.9743
Normalized toxicity values (HepG2) (HepG2; 0.412 microM): 0.9480
Normalized toxicity values (HepG2) (HepG2; 1.235 microM): 0.9543
Normalized toxicity values (HepG2) (HepG2; 3.704 microM): 1.1225
Normalized toxicity values (HepG2) (HepG2; 11.111 microM): 1.2725
Normalized toxicity values (HepG2) (HepG2; 33.333 microM): 1.2650
Normalized toxicity values (HepG2) (HepG2; 100.000 microM): 0.0718
Effect on normal cells (HFF-1) (HFF-1): not affected

CCOC(=O)c1c(C)nc2c(c(N3CCN(C(c4ccc(F)cc4)c4ccc(F)cc4)CC3)nc(=O)n2-c2ccccc2)c1-c1ccccc1 [Example 157]
Normalized toxicity values (Hek293T) (Hek293T; 0.005 microM): 1.1275
Normalized toxicity values (Hek293T) (Hek293T; 0.015 microM): 1.0600
Normalized toxicity values (Hek293T) (Hek293T; 0.046 microM): 1.1075
Normalized toxicity values (Hek293T) (Hek293T; 0.137 microM): 1.0975
Normalized toxicity values (Hek293T) (Hek293T; 0.412 microM): 0.9535
Normalized toxicity values (Hek293T) (Hek293T; 1.235 microM): 0.9633
Normalized toxicity values (Hek293T) (Hek293T; 3.704 microM): 1.0078
Normalized toxicity values (Hek293T) (Hek293T; 11.111 microM): 1.1475
Normalized toxicity values (Hek293T) (Hek293T; 33.333 microM): 1.3825
Normalized toxicity values (Hek293T) (Hek293T; 100.000 microM): 1.5650
Normalized toxicity values (HepG2) (HepG2; 0.005 microM): 1.1125
Normalized toxicity values (HepG2) (HepG2; 0.015 microM): 1.0775
Normalized toxicity values (HepG2) (HepG2; 0.046 microM): 1.1275
Normalized toxicity values (HepG2) (HepG2; 0.137 microM): 1.0175
Normalized toxicity values (HepG2) (HepG2; 0.412 microM): 0.9413
Normalized toxicity values (HepG2) (HepG2; 1.235 microM): 0.9785
Normalized toxicity values (HepG2) (HepG2; 3.704 microM): 0.9853
Normalized toxicity values (HepG2) (HepG2; 11.111 microM): 1.0043
Normalized toxicity values (HepG2) (HepG2; 33.333 microM): 1.1100
Normalized toxicity values (HepG2) (HepG2; 100.000 microM): 1.1575
